Experimental data taken from ChEMBL document CHEMBL1201862, “PubChem BioAssay data set” (2004).
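Compound exposure: 48 hours, 5 concentrations, 96-well plates. GI50 = concentration required for 50% inhibition of growth.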 Calls of active or inactive are those of the source. Cut-off read from the data, not from the text of the source: active = GI50 up to about 1.1 µM and inactive = higher. Non-standard residues stand in square brackets, D forms with d. Residues, ends and D or L forms follow the SMILES beside them. ξ: configuration not given here. ξLac(3-iPr) = CC(C)CC(O)C(=O)O; NMeV = CN[CH](C(=O)O)C(C)C; NMeA = CN[CH](C)C(=O)O; βAla = NCCC(=O)O

Legend:
Test in all cases: NCI-60 cell line screen, 48 h
[1] = test system: Hs-578T
[2] = test system: MDA-N
[3] = test system: DMS-114
[4] = test system: DLD-1
[5] = test system: SNB-78
[6] = test system: LXFL 529
[7] = test system: KM-20L2

SMILES | GI50 [1] | GI50 [2] | further results
O=C(Nc1cccc2ccccc12)c1ccccc1 | > 100 µM (inactive) | 77.6 µM (inactive) | 
Cc1cc(O)c(-c2cc(O)c(C)cc2O)cc1O | 25.9 µM (inactive) | 8.34 µM (inactive) | 
COC(=O)c1c(C)c2c(c(C)c1O)OC(=O)c1c(C)cc(O)c(C=O)c1O2 | 12.5 µM (inactive) | > 100 µM (inactive) | 
Cc1cc(O)cc2c1O[C@@]1(C)CCC3[C@@]4(C)CC[C@H](O)C(C)(C)C4CC[C@@]3(C)[C@H]1C2 (some centres not stated) |  |  | GI50 [3]: 5.09 µM (inactive); GI50 [4]: 4.06 µM (inactive); GI50 [5]: 5.98 µM (inactive); GI50 [6]: 2.85 µM (inactive)
CC(=O)Nc1ccc(-c2nnc(SCC(=O)Nc3cccc(Cl)c3)o2)cc1 |  |  | GI50 [3]: 1.36 µM (inactive); GI50 [4]: 14.3 µM (inactive); GI50 [5]: > 100 µM (inactive); GI50 [6]: 10.9 µM (inactive); GI50 [7]: 15.3 µM (inactive)
O=C(CCC(=O)CC(O)(C(F)(F)F)C(F)(F)F)CC(O)(C(F)(F)F)C(F)(F)F | 29.4 µM (inactive) |  | 
OCC(O)C1OC2CC1Nc1ccccc1N2 (configuration not stated) | > 100 µM (inactive) |  | 
CN1CCN(C2CC(=O)c3c(Cl)sc(Cl)c32)CC1 (configuration not stated) |  | 9.02 µM (inactive) | 
COc1ncnc2c1cnn2Cc1cn(CCCCO)nn1 | > 100 µM (inactive) | > 100 µM (inactive) | 
CCN(CC)CCn1nc(N)c2nc3cc(Cl)ccc3nc21 | > 100 µM (inactive) | 86.5 µM (inactive) | 
O=C1C=CC(=O)c2c1ccc1c3ccccc3n(Cc3ccc([N+](=O)[O-])cc3)c21 |  | > 100 µM (inactive) | 
COc1ccc(CC2OC3(CCCCC3)CC3CCCCN32)cc1 (configuration not stated) | 36.7 µM (inactive) | 52.6 µM (inactive) | 
CS(=O)(=O)OC1CN2CCC1CC2 (configuration not stated) | > 100 µM (inactive) | > 100 µM (inactive) | 
Cc1ccc(Cc2n[nH]c(=O)n2Nc2ccccc2)cc1 | > 100 µM (inactive) | > 100 µM (inactive) | 
Cc1ccc(-c2cn3c(nc4ccccc43)c(/C=C/c3ccco3)n2)cc1 | 31.9 µM (inactive) | 42.1 µM (inactive) | 
CCC(C)OC(=O)C1C2CCC(O2)C1C(=O)O (configuration not stated) |  |  | GI50 [3]: > 41.6 µM (inactive); GI50 [4]: > 51.4 µM (inactive); GI50 [5]: > 100 µM (inactive); GI50 [6]: > 62.7 µM (inactive); GI50 [7]: > 44.9 µM (inactive)
O=C(CC1(O)C(=O)Nc2ccccc21)c1ccncc1 (configuration not stated) |  |  | GI50 [3]: > 100 µM (inactive); GI50 [4]: > 100 µM (inactive); GI50 [5]: > 100 µM (inactive); GI50 [6]: > 100 µM (inactive); GI50 [7]: > 100 µM (inactive)
NCCCc1ccc2oc3ccccc3c2c1 | 21.3 µM (inactive) | 15.6 µM (inactive) | 
Cc1ccc(C2NC(=N)NC3=C2CCOc2c3ccc3ccccc23)cc1 (configuration not stated) | 20.5 µM (inactive) |  | 
CC(=O)Oc1ccc2cc(Oc3ccccc3)c(=O)oc2c1 | > 100 µM (inactive) | > 100 µM (inactive) | 
CCc1ccc2c(c1)/C(=C1/Nc3ccccc3/C1=N/O)C(=O)N2 | 4.57 µM (inactive) | 7.53 µM (inactive) | 
CCOC(=O)C1C(c2ccccc2)C2(C#N)C(=N)OC1(C)C2(C#N)C#N (configuration not stated) | 29.5 µM (inactive) | 14.7 µM (inactive) | 
Cn1nc2ccc3nccc(N4CCN(CCO)CC4)c3c2n1 | > 100 µM (inactive) | > 100 µM (inactive) | 
COc1c(-c2ccc(O)c(O)c2)oc2c(O)c(O)cc(O)c2c1=O | 49.5 µM (inactive) | 61.5 µM (inactive) | 
Cc1ccc(/C=N\NC(=O)c2ccncc2)s1 | > 100 µM (inactive) | > 100 µM (inactive) | 
CC1OC(n2cc(F)c(=O)[nH]c2=O)C(O[Si](C)(C)C(C)(C)C)C1O[Si](C)(C)C(C)(C)C (configuration not stated) | 14.3 µM (inactive) | 15.5 µM (inactive) | 
CC1Cc2cc(O)c(O)cc2-c2cc(O)c(O)cc2CC1C (configuration not stated) | 9.04 µM (inactive) | 3.07 µM (inactive) | 

SMILES | GI50 [1] | GI50 [2] | further results
Cc1cc(C#N)c[n+](C)c1 | > 100 µM (inactive) | > 100 µM (inactive) | 
CN(CCNC(=O)c1n[nH]c2c1Cc1ccccc1-2)CCNC(=O)c1n[nH]c2c1Cc1ccccc1-2 | 25.3 µM (inactive) | 16.5 µM (inactive) | 
COC(=O)C1CCC(=O)N1C(c1cc(OC)c(OC)c(OC)c1)c1cc(OC)c(OC)c(OC)c1 (configuration not stated) | > 100 µM (inactive) | > 100 µM (inactive) | 
CN(C)c1ccc(/C=N/c2ccc(-c3nc4ccccc4[nH]3)cc2)cc1 | 63 µM (inactive) | > 100 µM (inactive) | 
COc1ccc(CN/C=N/C(C#N)=C(\N)C#N)cc1OC | > 100 µM (inactive) | > 100 µM (inactive) | 
O=C(O)CCC(NC(=O)c1ccc(Nc2nc3ccccc3nc2C(=O)O)cc1)C(=O)O (configuration not stated) | > 100 µM (inactive) | > 100 µM (inactive) | 
Cc1ccc(S(=O)(=O)NC(=N)N(C)N=O)cc1 | > 100 µM (inactive) | > 100 µM (inactive) | 
O=C1CSC(=S)N1c1ccco1 | > 100 µM (inactive) | 19.8 µM (inactive) | 
COc1cccc(/N=N/C(=N\NC(=O)c2ccc(C)cc2)c2ccc(N(CCC#N)CCC#N)cc2C)c1 | 54.1 µM (inactive) | > 100 µM (inactive) | 
C=C1CC(C)(c2cccc(Nc3nc4ccccc4c4occc34)c2)OC1=O (configuration not stated) | 3.25 µM (inactive) | 5.21 µM (inactive) | 
CCCCNc1nc(NC2OCC(OC(C)=O)C(OC(C)=O)C2OC(C)=O)c(N=O)c(=O)n1C (configuration not stated) | > 10 µM (inactive) |  | 
N=C(N)SCCON1C(=O)c2ccccc2C1=O | > 100 µM (inactive) | > 100 µM (inactive) | 
CC1=C(OC2OC(CO)C(O)C(O)C2O)C(=O)C[C@H]2C1=CC[C@@H]1[C@@]2(C)C(=O)C[C@]2(C)[C@@H]([C@@](C)(O)C(=O)CCC(C)(C)O)[C@H](O)C[C@@]12C (some centres not stated) |  | > 100 µM (inactive) | 
O=[N+]([O-])c1ccc2nc3ccccc3cc2c1 | 3.21 µM (inactive) |  | 
NC(=O)c1ncn2c(=O)n(CCl)nnc12 | > 100 µM (inactive) | > 100 µM (inactive) | 
CCCN(CCC)C(=O)c1c([N+](=O)[O-])cc(C(F)(F)F)cc1[N+](=O)[O-] |  |  | GI50 [5]: 35.2 µM (inactive); GI50 [6]: 30.4 µM (inactive); GI50 [7]: 22.6 µM (inactive)
Cc1ccc(C)c(N2C(=O)C(=O)c3c(C)ccc(C)c32)c1 | 22.4 µM (inactive) |  | 
CC(NC(=O)OCc1ccccc1)NC(=O)C(CC(=O)OC(C)(C)C)NC(=O)OC(C)(C)C (configuration not stated) | > 100 µM (inactive) | > 100 µM (inactive) | 
CCOC(=O)c1[nH]c2nc(SC)nc(NC)c2c1N | > 100 µM (inactive) | > 100 µM (inactive) | 
C[C@@]12C[C@@H](c3ccccc3O1)N1CCSC1=N2 | > 100 µM (inactive) | > 100 µM (inactive) | 
O=C(Nc1ccccc1)c1nn(-c2cc(S(=O)(=O)O)c([N+](=O)[O-])cc2Cl)[n+](-c2cc(S(=O)(=O)[O-])c([N+](=O)[O-])cc2Cl)n1 | > 100 µM (inactive) | > 100 µM (inactive) | 
CC(C)C1=CC23CCC4C(C)(C(=O)O)CCCC4(C)C2CC1C1C(=O)N(c2cccc(N4C(=O)C5C6CC7C8(C)CCCC(C)(C(=O)O)C8CCC7(C=C6C(C)C)C5C4=O)c2)C(=O)C13 (configuration not stated) | 3.77 µM (inactive) |  | 
NC1=NC(=O)[C@H](Cc2c[nH]c3ccccc23)N1C(=O)OCc1ccccc1 | 44.9 µM (inactive) | > 100 µM (inactive) | 
C/C(=N\NC(=O)c1ccncc1)c1ccccc1F |  | > 10 µM (inactive) | 
CCC(C)C1NC(=O)C2CCCN2C(=O)C(CC(C)C)OC(=O)CCNC(=O)C(C)N(C)C(=O)C(C(C)C)N(C)C1=O (configuration not stated) (cyclo([ξLac(3-iPr)]PI[NMeV][NMeA][βAla]); configuration not given here) | 23.2 µM (inactive) | 2.61 µM (inactive) | 
CC(C)(Sc1cc(C(C)(C)C)c(O)c(C(C)(C)C)c1)Sc1cc(C(C)(C)C)c(O)c(C(C)(C)C)c1 [PROBUCOL] | > 100 µM (inactive) | > 100 µM (inactive) | 
